Data on ten compounds can be found in ChEMBL document CHEMBL1201862, “PubChem BioAssay data set” (2004).

Assay in all cases: NCI anticancer screen, dose series, 48 h
The subject of assay [1] is 786-0.
Assay [2] has as its system ACHN.
The subject of assay [3] is COLO 205.
In assay [4] the test system is DU-145.
Assay [5] relates to HOP-92.
The test system of assay [6] is HT-29.
Assay [7] deals with K562.
The test system of assay [8] is KM12.
The subject of assay [9] is M14.
Assay [10] relates to MDA-N.
For assay [11], the system named is NCI-H226.
In assay [12] the test system is NCI-H23.
Assay [13] has as its system NCI-H522.
The test system of assay [14] is NCI/ADR-RES.
The subject of assay [15] is OVCAR-8.
For assay [16], the system named is PC-3.
Assay [17] concerns SF-268.
Assay [18] deals with SK-MEL-28.
In assay [19] the test system is SW-620.
Assay [20] relates to U-251.

Each structure is given as a SMILES string.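 Compound exposure: 48 hours, 5 concentrations, 96-well plates. GI50 is the concentration that inhibits growth by half.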 Calls of active or inactive are those of the source. Cut-off read from the data, not from the text of the source: active = GI50 up to about 1.1 µM and inactive = higher.

For the compound `CS(=O)(=O)N(CC(=O)O)Cc1ccccc1`, the GI50 in [1], in assay [2], in assay [3], in [4], in assay [5] and in [6] was > 100 µM (inactive) each time. The GI50 in assay [7], in assay [8], in assay [9], in [10], in assay [11] and in [12] was > 100 µM (inactive) throughout. The GI50 in [13], in [14], in assay [15], in assay [16], in [17] and in assay [18] was > 100 µM (inactive) in each case. Further, the GI50 in assay [19] and in assay [20] was > 100 µM (inactive) throughout.

On to `O=c1cc(/N=N\c2ccc(Cl)c(Cl)c2)[nH]c(=O)[nH]1`, for which the GI50 in assay [1] is 1.51 µM (inactive); in assay [2], 1.62 µM (inactive); in assay [3], 1.81 µM (inactive); in assay [4], 2.94 µM (inactive); in [5] it was 1.59 µM (inactive); in assay [6] it was 1.73 µM (inactive). Further, the GI50 in [7] was 0.977 µM (active); in [8], 2.26 µM (inactive); in assay [9], 1.93 µM (inactive); in assay [10], 1.8 µM (inactive); in [11], 15.1 µM (inactive); in assay [12], 3.89 µM (inactive). The GI50 in assay [13] was 1.07 µM (active); in [14] it was 1.85 µM (inactive); in assay [15], 2.21 µM (inactive); in assay [16], 5.74 µM (inactive); in [17], 2.88 µM (inactive); in [18], 1.73 µM (inactive). Besides, the GI50 in [19] is 1.86 µM (inactive); in assay [20], 1.87 µM (inactive).

`Nc1ccc2nc3n(c2c1)C(=O)c1ccccc1-3`: the GI50 in [1], in assay [2], in assay [3], in [4], in [5] and in assay [6] was > 100 µM (inactive) each time. The GI50 in [7], in assay [8], in assay [9], in assay [10], in [11] and in assay [12] was > 100 µM (inactive) in each case. The GI50 in assay [13], in assay [14], in [15], in [16], in [17] and in [18] was > 100 µM (inactive) throughout. Further, the GI50 in assay [19] and in assay [20] was > 100 µM (inactive) in each case.

As for `CC(=O)OC1CC2(C)C(OC(C)=O)CC1C2(C)C` (stereo not given), the GI50 in assay [1], in assay [2], in [3], in [4], in [5] and in assay [6] was > 100 µM (inactive) throughout. In addition, the GI50 in assay [7], in assay [8], in assay [9], in [10], in assay [11] and in assay [12] was > 100 µM (inactive) in each case. Moreover, the GI50 in assay [13], in [14], in assay [15], in assay [16], in assay [17] and in assay [18] was > 100 µM (inactive) throughout. The GI50 in assay [19] and in [20] was > 100 µM (inactive) throughout.

On to `Clc1ccc(CSc2ncnc3c2ncn3C2CCCCO2)cc1` (stereo not given), for which the GI50 is 22.5 µM (inactive) in assay [1]; 16.1 µM (inactive) in [2]; 20 µM (inactive) in assay [3]; 31.2 µM (inactive) in assay [4]; 24.7 µM (inactive) in assay [5]; 18.8 µM (inactive) in assay [6]. Moreover, the GI50 in [7] was 12.6 µM (inactive); in assay [8] it was 19.1 µM (inactive); in assay [9], 17.1 µM (inactive); in assay [10], 20.1 µM (inactive); in assay [11], 28.4 µM (inactive); in assay [12] it was 17.4 µM (inactive). Also, the GI50 in assay [13] is 13.8 µM (inactive); in assay [14], 17.9 µM (inactive); in [15], 22.9 µM (inactive); in assay [16], 25.6 µM (inactive); in [17], 23.3 µM (inactive); in assay [18] it was 22.8 µM (inactive). For the same compound, the GI50 in assay [19] is 29.9 µM (inactive); in assay [20], 19.6 µM (inactive).

As for `O=C(C1OC1c1ccc(F)cc1)C12CC3CC(CC(C3)C1)C2` (stereo not given), the GI50 in assay [1] is 15.2 µM (inactive); in assay [2], 30 µM (inactive); in assay [3], 16 µM (inactive); in [4], 34 µM (inactive); in assay [5], 20.3 µM (inactive); in assay [6], 20.2 µM (inactive). In addition, the GI50 in assay [7] is 17.6 µM (inactive); in assay [8] it was 15.7 µM (inactive); in assay [9], 15.7 µM (inactive); in assay [10], 12.7 µM (inactive); in assay [11] it was 20.2 µM (inactive); in [12] it was 22.1 µM (inactive). Moreover, the GI50 in assay [13] is 17.4 µM (inactive); in assay [14], 21.2 µM (inactive); in [15], 14.4 µM (inactive); in assay [16] it was 30.7 µM (inactive); in assay [17], 22.4 µM (inactive); in [18] it was 24.4 µM (inactive). For the same compound, the GI50 in [19] was 17.2 µM (inactive); in [20], 11.4 µM (inactive).

For the compound `Fc1cccc(Cl)c1/C=N\N=C1c2ccccc2-c2ccccc21`, the GI50 in assay [1] is > 100 µM (inactive); in assay [2], 95.3 µM (inactive); in assay [3], > 100 µM (inactive); in assay [4], > 100 µM (inactive); in assay [5] it was > 100 µM (inactive); in [6], 58.9 µM (inactive). Also, the GI50 was > 100 µM (inactive) in assay [7]; 40.7 µM (inactive) in [8]; > 100 µM (inactive) in [9]; 48.3 µM (inactive) in [10]; > 100 µM (inactive) in assay [11]; > 100 µM (inactive) in [12]. Also, the GI50 in assay [13] was > 100 µM (inactive); in assay [14] it was > 100 µM (inactive); in [15] it was 79.8 µM (inactive); in assay [16], 97.9 µM (inactive); in [17], > 100 µM (inactive); in [18], 76 µM (inactive). Further, the GI50 is 73.8 µM (inactive) in [19] and 78.9 µM (inactive) in assay [20].

Turning to `NC(=O)CCC(NC(=O)c1c2ccccc2nc2ccccc12)C(=O)O` (stereo not given), the GI50 in assay [1], in assay [2], in assay [3], in [4], in [5] and in assay [6] was > 100 µM (inactive) in each case. For the same compound, the GI50 in assay [7], in assay [8], in [9], in assay [10], in assay [11] and in assay [12] was > 100 µM (inactive) throughout. Moreover, the GI50 in assay [13], in assay [14], in assay [15], in [16], in [17] and in assay [18] was > 100 µM (inactive) throughout. For the same compound, the GI50 in assay [19] and in assay [20] was > 100 µM (inactive) throughout.

`COc1ccc(/C(Nc2ccccc2)=C(\CCl)c2ccccc2)cc1OC`: the GI50 in assay [1] was 55.8 µM (inactive); in [2] it was 31.9 µM (inactive); in [3] it was 71.6 µM (inactive); in assay [4], 86.3 µM (inactive); in assay [5] it was 37.6 µM (inactive); in assay [6], 34.9 µM (inactive). Besides, the GI50 was 15.7 µM (inactive) in assay [7]; 57.1 µM (inactive) in [8]; 41.4 µM (inactive) in assay [9]; 35.7 µM (inactive) in [10]; 30.9 µM (inactive) in assay [11]; 45.9 µM (inactive) in assay [12]. Further, the GI50 in assay [13] is 16.7 µM (inactive); in [14] it was 32.1 µM (inactive); in [15], 35.2 µM (inactive); in assay [16] it was 39.4 µM (inactive); in [17], 97.1 µM (inactive); in assay [18] it was 82 µM (inactive). In addition, the GI50 in [19] was 46.2 µM (inactive); in assay [20], 6.53 µM (inactive).

As for `CCOc1cc(C2SCC(=O)N2c2ccc(Oc3ccc(Cl)cc3)c(Cl)c2)ccc1O` (stereo not given), the GI50 is 25 µM (inactive) in assay [1]; 17.4 µM (inactive) in [2]; 22.5 µM (inactive) in assay [3]; 16.6 µM (inactive) in [4]; 18.6 µM (inactive) in assay [5]; 17.1 µM (inactive) in assay [6]. The GI50 in [7] is 27.1 µM (inactive); in assay [8], 16.9 µM (inactive); in [9], 23.5 µM (inactive); in assay [10], 23.1 µM (inactive); in [11] it was 15.6 µM (inactive); in assay [12], 17 µM (inactive). Further, the GI50 is 13.2 µM (inactive) in assay [13]; 17.7 µM (inactive) in assay [14]; 17.7 µM (inactive) in assay [15]; 16.6 µM (inactive) in assay [16]; 15.4 µM (inactive) in assay [17]; 20 µM (inactive) in [18]. For the same compound, the results for the GI50 in assay [19] and in assay [20] were 17 µM (inactive) and 18.4 µM (inactive), respectively.
